According to patent US8420630B2 (Boehringer Ingelheim Pharma GmbH & Co. KG, priority 2001, dated 2013):

Target: T1, CDK1/cyclinB1 (Homo sapiens, UniProt P06493)
T1 construct: made in house; host or cells: High Five insect cells (Trichoplusia ni), baculovirus coinfection
Test: Cyclin B1-CDK1 kinase inhibition test
Type: biochemical
Conditions: not given
In short: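 Baculovirus-expressed CDK1/cyclin B1 phosphorylated histone H1 with ATP mix containing 0.045 mM ATP plus ^33P-ATP for 30 min at 30 °C. Protein was precipitated with TCA and filter-bound radioactivity read by scintillation counting. Olomoucin at 30 and 300 μM final served as internal control.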

T1 sequence (P06493 whole entry): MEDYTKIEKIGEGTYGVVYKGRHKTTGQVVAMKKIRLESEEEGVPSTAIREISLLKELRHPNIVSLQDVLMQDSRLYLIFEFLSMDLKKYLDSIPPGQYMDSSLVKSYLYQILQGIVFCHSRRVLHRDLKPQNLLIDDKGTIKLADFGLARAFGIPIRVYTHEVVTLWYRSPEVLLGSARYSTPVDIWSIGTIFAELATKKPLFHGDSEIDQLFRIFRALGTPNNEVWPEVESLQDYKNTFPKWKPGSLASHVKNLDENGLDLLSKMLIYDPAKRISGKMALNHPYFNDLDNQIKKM
T1 sequence (P14635 whole entry partner): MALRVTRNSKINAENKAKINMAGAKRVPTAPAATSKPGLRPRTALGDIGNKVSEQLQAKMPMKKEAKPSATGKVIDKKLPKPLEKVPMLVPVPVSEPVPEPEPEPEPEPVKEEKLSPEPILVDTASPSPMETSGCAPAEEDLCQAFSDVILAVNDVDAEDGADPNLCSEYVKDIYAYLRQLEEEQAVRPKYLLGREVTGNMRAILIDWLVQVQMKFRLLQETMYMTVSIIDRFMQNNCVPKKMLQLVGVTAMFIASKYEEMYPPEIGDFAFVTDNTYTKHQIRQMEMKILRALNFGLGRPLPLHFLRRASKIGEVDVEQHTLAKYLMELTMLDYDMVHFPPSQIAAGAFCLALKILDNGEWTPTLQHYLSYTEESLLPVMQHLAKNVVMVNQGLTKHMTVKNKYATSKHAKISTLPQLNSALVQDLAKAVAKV

SMILES	IC50
CN1CCC(CNc2nc(Nc3ccc(Cl)c(Cl)c3)ncc2C(F)(F)F)CC1 [Example 1(030)]	< 100 nM

Same assay, conditions: CDK1 tests (Example 13); recombinant cyclin B1/CDK1, substrate histone H1; read-out: CDK1/cyclinB1 IC50 value

SMILES	IC50
O=C(O)CCc1ccc(Nc2ncc(C(F)(F)F)c(N3CCc4[nH]cnc4C3)n2)cc1 [Example 1(023), 2-(4-(2-carboxy-1-ethyl-)phenylamino)-4-(1,4,6,7-tetrahydro-imidazo[4,5-c]pyridin-5-yl)-5-trifluoromethyl-pyrimidine]	< 100 nM
O=C1CCCN1CCCNc1nc(Nc2cccc(Cl)c2)ncc1C(F)(F)F [Example 1(067), 2-(3-chloro-phenylamino)-4-(3-(2-oxo-pyrrolidin-1-yl)-propyl-1-amino)-5-trifluoromethyl-pyrimidine]	< 100 nM
Cc1cc(Nc2ncc([N+](=O)[O-])c(NCC3CCC(CN)CC3)n2)ccc1Cl (stereo not drawn) [Example 1(115), 2-(4-chloro-3-methyl-phenylamino)-4-(4-aminomethyl-cyclohexylmethylamino)-5-nitro-pyrimidine]	< 100 nM
O=[N+]([O-])c1cnc(NCc2ccccc2Br)nc1N1CC[S+]([O-])CC1 [Example 1(628), 2-(2-bromo-benzylamino)-4-(S-oxido-thiomorpholino)-5-nitro-pyrimidine]	< 100 nM
O=C(Nc1ccccc1)c1ccc(Nc2ncc([N+](=O)[O-])c(N3CCc4[nH]cnc4C3)n2)cc1 [Example 1(026), 2-(4-phenylaminocarbonyl-phenylamino)-4-(1,4,6,7-tetrahydro-imidazo[4,5-c]pyridin-5-yl)-5-nitro-pyrimidine]	< 100 nM
CC(=O)NCCNc1nc(Nc2ccc3c(cnn3C)c2)ncc1C(F)(F)F [Example 1(655), N-{2-[2-(1-methyl-1H-indazol-5-ylamino)-5-trifluoromethyl-pyrimidin-4-ylamino]-ethyl}-acetamide]	< 100 nM
O=[N+]([O-])c1cccc(Nc2ncc([N+](=O)[O-])c(N3CCCC(CO)C3)n2)c1 (stereo not drawn) [Example 1(050), 2-(3-nitro-phenylamino)-4-(3-hydroxymethyl-piperidin-1-yl)-5-nitro-pyrimidine]	< 100 nM
O=C(O)c1ccc(Nc2ncc([N+](=O)[O-])c(N3CCc4[nH]cnc4C3)n2)cc1 [Example 1(029), 2-(4-carboxy-phenylamino)-4-(1,4,6,7-tetrahydro-imidazo[4,5-c]pyridin-5-yl)-5-nitro-pyrimidine]	< 100 nM
O=[N+]([O-])c1cnc(Nc2ccc(Cl)cc2)nc1N1CCc2[nH]cnc2C1 [Example 1(010), 2-(4-chlorophenylamino)-4-(1,4,6,7-tetrahydro-imidazo[4,5-c]pyridin-5-yl)-5-nitro-pyrimidine]	< 100 nM
CC(=O)NCCNc1nc(Nc2ccc3cnn(C)c3c2)ncc1C(F)(F)F [Example 1(654), N-{2-[2-(1-methyl-1H-indazol-6-ylamino)-5-trifluoromethyl-pyrimidin-4-ylamino]-ethyl}-acetamide]	< 100 nM
O=[N+]([O-])c1cnc(Nc2cccc(Br)c2)nc1N1CCc2[nH]cnc2C1 [Example 1(119), 2-(3-bromophenylamino)-4-(1,4,6,7-tetrahydro-imidazo[4,5-c]pyridin-5-yl)-5-nitro-pyrimidine]	< 100 nM

Other lines, results leading:

IC50	SMILES
< 100 nM	CC(=O)NCCNc1nc(Nc2cccc(NC(C)=O)c2)ncc1C(F)(F)F [Example 10(000), N-(2-[2-(3-acetylamino-phenylamino)-5-trifluoromethyl-pyrimidin-4-ylamino]-ethyl)-acetamide]
< 100 nM	CC(=O)NCCNc1nc(Nc2ccc(S(=O)(=O)N(C)C)cc2)ncc1C(F)(F)F [Example 2(047), N-{2-[2-(4-Dimethylsulphamoyl-phenylamino)-5-trifluoromethyl-pyrimidin-4-ylamino]-ethyl}-acetamide]
< 100 nM	CC(=O)NCCNc1nc(Nc2ccc(-c3nn[nH]n3)cc2)ncc1C(F)(F)F [Example 2(046), N-(2-{2-[4-(2H-Tetrazol-5-yl)-phenylamino]-5-trifluoromethyl-pyrimidin-4-ylamino}-ethyl)-acetamide]
< 100 nM	CC(=O)NCCNc1nc(Nc2ccc(C(=O)Nc3ccccn3)cc2)ncc1C(F)(F)F [Example 8(024), 4-[4-(2-acetylamino-ethylamino)-5-trifluoromethyl-pyrimidin-2-ylamino]-N-pyridin-2-yl-benzamide]
< 100 nM	Cc1cnc(Nc2ccc3cn[nH]c3c2)nc1NCCCN1CCCC1=O [Example 2(075), 1-{3-[2-(1H-indazol-6-ylamino)-5-methyl-pyrimidin-4-ylamino]-propyl}-pyrrolidin-2-one]
< 100 nM	CC(=O)NCCNc1nc(Nc2ccc(NS(=O)(=O)c3ccccc3)cc2)ncc1C(F)(F)F [Example 10(016), N-(2-[2-(4-phenylsulphonylamido-phenylamino)-5-trifluoromethyl-pyrimidin-4-ylamino]-ethyl)-acetamide]
< 100 nM	CC(=O)NCCNc1nc(Nc2ccc(N(C)S(C)(=O)=O)cc2)ncc1C(F)(F)F [Example 2(011), 2-(4-(N-Methyl-N-methylsulphonyl)amino-phenylamino)-4-(2-acetylamino-ethylamino)-5-trifluoromethyl-pyrimidine]
< 100 nM	Cn1ncc2ccc(Nc3ncc(C(F)(F)F)c(NCCCNC(=O)Cc4ccccc4)n3)cc21 [Example 7(021), N-{3-[2-(1-methyl-1H-indazol-6-ylamino)-5-trifluoromethyl-pyrimidin-4-ylamino]-propyl}-2-phenyl-acetamide]
< 100 nM	O=C1CCCN1CCCNc1nc(Nc2ccc(Cl)c(Cl)c2)ncc1Br [Example 1(661), 1-{3-[5-Bromo-2-(3,4-dichloro-phenylamino)-pyrimidin-4-ylamino]-propyl}-pyrrolidin-2-one]

System: cell culture
Test: not given
Conditions: Ongkeko et al., 1995, J. Cell Sci., 108, 2897; cited from earlier work

SMILES	effect with cytotoxic substances in cell culture
Cn1cnc2c(NCc3ccccc3)nc(NCCO)nc21 [olomoucine]	synergistic effect

System: not given
Test: not given
Conditions: not given

melting point	SMILES
171 to 173 °C	CC(=O)NCCNc1nc(Nc2ccc(C(=O)O)cc2)ncc1[N+](=O)[O-].Cl
282 °C	CC(=O)NCCNc1nc(Nc2cccc(C(=O)O)c2)ncc1C(F)(F)F [Example 9, 3-[4-(2-acetylamino-ethylamino)-5-trifluoromethyl-pyrimidin-2-ylamino]-benzoic acid]
222 °C	CC(=O)NCCNc1nc(Nc2cccc(NC(C)=O)c2)ncc1C(F)(F)F [Example 10(000), N-(2-[2-(3-acetylamino-phenylamino)-5-trifluoromethyl-pyrimidin-4-ylamino]-ethyl)-acetamide]
183 °C	CNC(=O)c1ccc(Nc2ncc(C(F)(F)F)c(NCCNC(C)=O)n2)cc1 [Example 8, 4-[4-(2-acetylamino-ethylamino)-5-trifluoromethyl-pyrimidin-2-ylamino]-N-methyl-benzamide]
275 to 278 °C	CC(=O)NCCNc1nc(Nc2ccc(C(=O)O)cc2)ncc1C(C)C [Example 6, 4-[4-(2-acetylamino-ethylamino)-5-isopropyl-pyrimidin-2-ylamino]-benzoic acid]
93 to 94 °C	CC(=O)NCCNc1nc(Nc2cccc(CN3CCCCC3)c2)ncc1C(F)(F)F [Example 11, N-{2-[2-(3-piperidin-1-ylmethyl-phenylamino)-5-trifluoromethyl-pyrimidin-4-ylamino]-ethyl}-acetamide]
160 to 162 °C	O=C(NCCNc1nc(Nc2ccc(Cl)c(Cl)c2)ncc1C(F)(F)F)c1ccccc1 [Example 7, N-(2-[2-(3,4-dichloro-phenylamino)-5-trifluoromethyl-pyrimidin-4-ylamino]-ethyl)-benzamide]
200 to 201 °C	CC(=O)NCCNc1nc(Nc2ccc(Cl)c(Cl)c2)ncc1[N+](=O)[O-] [Example 1, 2-(3,4-dichlorophenylamino)-4-(2-acetylamino-ethylamino)-5-nitro-pyrimidine]
